Patent US9493468B2, “Antifungal 5,6-dihydro-4H-pyrrolo[1,2-a][1,4]benzo-diazepines and 6H-pyrrolo[1,2-a][1,4]benzodiazepines substituted with heterocyclic derivatives” (Janssen Pharmaceutica NV, priority 2011, dated 2016)

How the values were obtained:
Assay type in all cases: cell-based
Microsporum canis = assay: Antifungal activity in vitro, resazurin growth inhibition: Microsporum canis (B68128)
Procedure: (§1) The standard susceptibility screen is performed in 96-well plates (U-bottom, Greiner Bio-One). Serial dilutions (2-fold or 4-fold) of 20 mM compound stock solutions are made in 100% DMSO, followed by an intermediate dilution step in water. These serial dilutions (10 μl) are then spotted onto test-plates that can be stored in the dark at 4° C. for a maximum period of 2 weeks. An adequate broad dose-range is included with 64 μM as the highest in-test concentration. The culture medium RPMI-1640 is supplemented with L-glutamine, 2% glucose and buffered with 3-(N-morpholino)-propanesulfonic acid (MOPS) at pH 7.0±0.1.
(§2) The different fungal species/isolates (Table 3a) are cryopreserved and 1/1000 diluted in medium just prior to use. A standard inoculum of 200 μl containing 10^3 colony-forming unit (cfu) is then added to each well. A positive control (100% growth=fungal culture without antifungal) and a negative control (0% growth ═RPMI-MOPS medium) are included on each plate. Optimal incubation time and temperature are dependent on the fungal species and vary from 24 h for yeasts (37° C.) to one week or more for dermatophytes (27° C.). Inhibition of fungal growth is measured after adding 10 μl of 0.005% (w/v) resazurin (Sigma Aldrich) to each well, based on the principle that living cells convert the non-fluorescent blue resazurin into the pink and fluorescent resorufin, allowing fluorimetric reading (λex 550 nm and λem 590 nm) after an additional incubation period (‘resa’ time mentioned in Table 3a).

Cryptococcus neoformans = assay: Antifungal activity in vitro, resazurin growth inhibition: Cryptococcus neoformans (B66663)
Procedure: as §1, §2

Aspergillus fumigatus = assay: Antifungal activity in vitro, resazurin growth inhibition: Aspergillus fumigatus (B42928)
Procedure: as §1, §2

Trichophyton rubrum = assay: Antifungal activity in vitro, resazurin growth inhibition: Trichophyton rubrum (B68183)
Procedure: as §1, §2

Candida parapsilosis = assay: Antifungal activity in vitro, resazurin growth inhibition: Candida parapsilosis (B66126)
Procedure: as §1, §2

[1] = test system: Trichophyton mentagrophytes; assay: Antifungal activity in vitro, resazurin growth inhibition: Trichophyton mentagrophytes (B70554)
Procedure: as §1, §2

Sporothrix schenkii = assay: Antifungal activity in vitro, resazurin growth inhibition: Sporothrix schenkii (B62482)
Procedure: as §1, §2

| SMILES | Inf. B: Microsporum canis B68128, pIC50 (Microsporum canis) | Inf. F: Cryptococcus neoformans B66663, pIC50 (Cryptococcus neoformans) | Inf. E: Aspergillus fumigatus B42928, pIC50 (Aspergillus fumigatus) | Inf. C: Trichophyton rubrum B68183, pIC50 (Trichophyton rubrum) | Inf. D: Candida parapsilosis B66126, pIC50 (Candida parapsilosis) | Inf. G: Trichophyton mentagrophytes B70554, pIC50 [1] | Inf. A: Sporothrix schenkii B62482, pIC50 (Sporothrix schenkii) |
| --- | --- | --- | --- | --- | --- | --- | --- |
| Cc1ccc(Cl)c2c1-n1cccc1C(c1cnc(C(F)(F)F)nc1)NC2.Cl (racemic) [Compound 27] | <4.90 | <4.90 | <4.90 | <4.90 | <4.90 | <4.90 | <4.90 |
| Cc1nc(Cl)cc2cc(C3=NCc4c(Cl)cccc4-n4cccc43)oc12 [Compound 160] | 5.03 | 5.61 | 5.85 | 5.84 | <4.49 | 5.48 | <4.49 |
| CCc1ccc(C2NCc3c(Cl)cccc3-n3cccc32)cn1.Cl (racemic) [Compound 14] | 5.30 | 4.28 | <4.19 | 5.30 | <4.19 | 4.74 | <4.19 |
| CC(=O)c1ccc(C2=NCc3c(F)cccc3-n3cccc32)cn1 [Compound 93] | 5.26 | <4.19 | 5.02 | 6.16 | <4.19 | 5.63 | <4.19 |
| COc1ccc2oc(C3=NCc4c(Cl)cc(Cl)cc4-n4cccc43)cc2c1 [Compound 148] | 5.82 | <4.19 | <4.19 | 5.04 | <4.19 | 4.19 | <4.19 |
| Cn1ccc2cc(C3=NCc4c(Cl)cccc4-n4cccc43)ccc21 [Compound 106] | 5.79 | 5.26 | 5.05 | 6.18 | 5.09 | 5.51 | 4.90 |
| Clc1cccc2c1CN=C(c1nc3ccccc3s1)c1cccn1-2 [Compound 180] | 4.40 | <4.19 | <4.19 | 6.03 | <4.19 | 4.39 | <4.19 |
| CCc1ccc(C2=NCc3c(Cl)cccc3-n3cccc32)nc1 [Compound 72] | 5.61 | <4.49 | <4.49 | 6.05 | <4.49 | <4.49 | <4.49 |
| Cc1ncc(C2=NCc3c(C)cccc3-n3cccc32)cn1 [Compound 99] | 5.10 | <4.19 | <4.19 | 4.89 | <4.19 | <4.19 | <4.19 |
| Cc1ccc2cc(C3NCc4c(Cl)cc(Cl)cc4-n4cccc43)oc2c1.Cl (racemic) [Compound 41] | <4.19 | <4.19 | <4.19 | 4.80 | <4.19 | <4.19 | <4.19 |
| Clc1ccc2c(c1)-n1cccc1C(c1ccc3scc(Cl)c3c1)=NC2 [Compound 178] | <4.19 | 6.49 | 5.93 | 4.37 | <4.19 | 4.26 | <4.19 |
| COc1ccc2oc(C3NCc4c(Cl)cc(Cl)cc4-n4cccc43)cc2c1.Cl (racemic) [Compound 46] | 5.12 | <4.19 | <4.19 | <4.19 | <4.19 | <4.19 | <4.19 |
| Clc1ccc(Cl)c2c1CN=C(c1ccc3ccoc3c1)c1cccn1-2 [Compound 151] | <4.19 | <4.19 | <4.19 | 4.95 | <4.19 | <4.19 | <4.19 |
| COc1cccc2cc(C3=NCc4ccccc4-n4cccc43)oc12 [Compound 157] | 5.79 | <4.49 | <4.49 | 6.58 | 4.61 | 5.96 | <4.49 |
| Cc1cccc2oc(C3=NCc4c(Cl)cccc4-n4cccc43)cc12 [Compound 132] | 4.59 | <4.49 | <4.49 | 5.54 | <4.49 | <4.49 | <4.49 |
| COc1ccc2oc(C3NCc4c(Cl)cccc4-n4cccc43)cc2c1.Cl (racemic) [Compound 44] | 5.31 | <4.19 | <4.19 | 5.20 | <4.19 | 4.77 | <4.19 |
| Cc1cccc2c1CNC(c1cc3ccccc3o1)c1cccn1-2.Cl (racemic) [Compound 32] | 5.70 | 4.39 | <4.19 | 6.10 | <4.19 | 5.70 | 4.35 |
| Fc1cc(Cl)c2c(c1)-n1cccc1C(c1ccc(Cl)nc1)=NC2 [Compound 78] | 5.41 | <4.19 | 5.42 | 6.18 | 5.07 | 4.47 | <4.19 |
